Assay results reported in patent publication US11680946B1, “Detection of cholinesterase inhibition with microfluidic devices and systems thereof” (priority 2020, dated 2023).
Entries after “also recorded” stand apart in the source; their conditions may differ.

What was measured:
[1] = system: acetylcholinesterase (AChE); assay: SpinDx pulldown AChE activity assay in human sample matrices with or without inhibition by paraoxon; type: biochemical; settings: pooled human tears, acetylthiocholine fluorogenic substrate
Source text: For this reason, we developed a SpinDx-based assay to provide information on (non-specific) inhibition of cholinesterase (ChE), such that the SpinDx test at a minimum provides information similar to that which can be obtained with the existing Test-mate ChE test, but in a simpler, more portable format. The term “SpinDx-based assay,” as used herein, refers to a bead-based assay format that employs a centrifugal microfluidic disc for transporting such beads (e.g., as described in FIG. 1A-1B and FIG. 3A-3D).
Our SpinDx assay can include components for a fluorescent analog of the Ellman's assay, loaded within the density medium. Upon spinning the disk, the capture beads, but not the blood sample or erythrocytes, will partition into the density medium. […]
We tested the assay extensively in buffer prior to translating to human bodily fluids, using either heat or paraoxon to inhibit the AChE cholinesterase activity. We determined that, in buffer, our limit of detection (LOD) for AChE with the SpinDx assay was between 0.005 and 0.01 mU/mL, with a limit of quantitation (LOQ) of 0.015 to 0.024 mU/mL, depending on the time of incubation (shorter incubations actually gave lower limits of detection and quantitation, perhaps because the fluorogenic assay inherently has a slow signal generation over time due to spontaneous hydrolysis of the substrate). […]

[2] = system: acetylcholinesterase (AChE); assay: standard Abcam fluorescent AChE assay in a microplate (plate reader); type: biochemical; settings: human tears; microtiter plate format
Source text: In addition, we performed side-by-side measurements of a series of samples including the human sample matrices and recombinantly expressed AChE with the SpinDx assay and with a traditional assay including a microtiter plate and plate reader (FIG. 7A-7B). The two assay formats show similar trends in the levels of activity, although certain samples (e.g., unkilled CSF) look dramatically higher in SpinDx than in the plate format.

With `CCOP(=O)(OCC)Oc1ccc([N+](=O)[O-])cc1` [paraoxon] the “reduction (kill) of cholinesterase activity by inhibitor” value [1] was “could not be reduced; also recorded: can't be killed” and the “reduction (kill) of apparent AChE activity by inhibitor” value [2] was “can't be killed”.
